Assay [1] has as its target T1, human RORgt nuclear receptor (RORgT ligand binding domain protein) (Homo sapiens, UniProt P51449).
T1 construct: purchased Proteros Biostructures GmbH
T1 sequence (P51449 with tags, fused parts or gaps): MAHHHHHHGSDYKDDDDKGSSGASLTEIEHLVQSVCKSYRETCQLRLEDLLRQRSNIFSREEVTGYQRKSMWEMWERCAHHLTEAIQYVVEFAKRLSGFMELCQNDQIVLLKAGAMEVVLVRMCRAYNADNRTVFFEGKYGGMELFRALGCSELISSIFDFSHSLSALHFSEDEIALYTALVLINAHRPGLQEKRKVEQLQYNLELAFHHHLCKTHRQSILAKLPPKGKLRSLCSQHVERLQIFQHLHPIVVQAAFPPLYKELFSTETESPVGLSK
Put plainly: ROR-gamma binding assay (Scintillation Proximity Assay, displacement of [3H]-25-hydroxycholesterol). The conditions noted are these: EC50, SPA, 15 nM [3H]-25-Hydroxycholesterol, RORgT LBD 12 nM. The protocol: This assay is used to evaluate the binding affinity of compounds to the ligand-binding pocket of the human RORgt nuclear receptor based on displacement of a radio-ligand. The EC50 values are calculated using a four parameter fit. Compounds binding with high affinity to RORgt will have low EC50 values.
The assay is a Scintillation Proximity Assay (SPA) that involves competition between an unlabeled test compound and tritium-labeled 25-hydroxycholesterol for binding to RORgT ligand binding domain (LBD) protein immobilized on the surface of SPA beads. These beads contain a scintillant that emits light if excited by a radioactive particle, and this light is detected using a scintillation counter. In this assay, tritium-labelled 25-hydroxycholesterol is used as radiotracer.
400 nL of titrated test and reference compounds in DMSO were transferred by the Echo liquid handling system to a 384-well assay plate followed by addition of 5 μL [3H]-25-Hydroxycholesterol (Perkin Elmer) and 35 μL diluted RORgT LBD protein with the following amino acid sequence (HIS-FLG-tag): MAHHHHHHGSDYKDDDDKGSSGASLTEIEHLVQSVCKSYRETCQLRLEDLLRQRSNIFSREEVTGYQRKSMWEMWERCAHHLTEAIQYVVEFAKRLSGFMELCQNDQIVLLKAGAMEVVLVRMCRAYNADNRTVFFEGKYGGMELFRALGCSELISSIFDFSHSLSALHFSEDEIALYTALVLINAHRPGLQEKRKVEQLQYNLELAFHHHLCKTHRQSILAKLPPKGKLRSLCSQHVERLQIFQHLHPIVVQAAFPPLYKELFSTETESPVGLSK (SEQ ID NO: 1) (Purchased from Proteros Biostructures GmbH). After 30 min of preincubation, 40 μL of HIS-TAG PVT SPA beads (Perkin Elmer) were added. The plates were then incubated for minimum 4 hours at room temperature in darkness before measuring the SPA signal using a MicroBeta plate scintillation counter. Final assay conditions were: 50 mM HEPES pH 7.4, 150 mM NaCl, 5 mM MgCl2, 0.1% BSA, 4 μg/well HIS-TAG PVT SPA Beads, 30 ng/well RORgT LBD (equal to a final concentration of 12 nM), 15 nM [^3H]-25-Hydroxycholesterol, 0.5% DMSO and varying concentrations of test compound in a total volume of 80 μL/well. EC50 values were calculated using a 4-parameter non-linear regression curve-fitting model.
In general terms: Scintillation proximity formats need no separation of bound from free tracer.

The test system of assay [2] is IL-17A in Human peripheral mononuclear cells. The assay is described as follows: Human PBMC IL-17A assay. The class given is cell-based. Conditions: 72 h, EC50, antiCD3/antiCD28-coated beads, 3 days, alpha-LISA. The protocol:
This assay measures the IL-17A inhibitory potential of test compounds in Human peripheral mononuclear cells.
Peripheral blood mononuclear cells (PBMC) were isolated from human buffy coats using density grade centrifugation (Lymphoprep, Medinor), washed twice in PBS and frozen at −150° C. for later use.
Test compounds were diluted in DMSO and 70 nL of titrated test and reference compounds were transferred by the Echo liquid handling system to a 384-well assay plate in to give a final concentration of 0.1% DMSO in the wells.
The PBMC were thawed, washed and suspended in RPMI-1640 supplemented with pen/strep, glutamax and 10% bovine calf serum. The cells were mixed with antiCD3/antiCD28-coated beads (1 cells pr one bead) (Milteney T-cell expansion kit), and immediately thereafter the cells were pipetted to the plate at 130,000c/well. The plate was incubated for 3 days in humidified air/CO2 (95%/5%) On day 3 the level of IL-17A in the culture supernatant is measured using alpha-LISA kit (Perkin Elmer). Cell viability was measured by adding 6 uL pr well Prestoblue© (Life Technologies) and incubating for 2 hours followed by fluorescent measurement (Ex535/Em615). EC50 values were calculated using a 4-parameter non-linear regression curve-fitting model. Donors may be pre-screened in order to select PBMC with a high secretion of IL-17A.
On the technique in general: Alpha assays give light when donor and acceptor beads are brought close together.

For assay [3], the system named is IL-17A levels in human peripheral blood. Put plainly: tissue or blood. The class given is cell-based. Conditions: 72 h, read-out: Human Whole blood IL-17A (nM).

SMILES strings stand for the structures.

Regarding `COCc1nnc(Nc2cc(Cl)cc(CN3CCN(C(=O)C4CCC4)[C@@H](C)C3)c2C)o1` [Example 12, [(2S)-4-[[5-chloro-3-[[5-(methoxymethyl)-1,3,4-oxadiazol-2-yl]amino]-2-methyl-phenyl]methyl]-2-methyl-piperazin-1-yl]-cyclobutyl-methanone], the EC50 was 40.4 nM in assay [1], 128 nM in assay [2] and 302 nM in assay [3].
The matching figures for `COCc1nnc(Nc2cc(Cl)cc(CN3CCN(C(=O)C4CCCC4)[C@@H](C)C3)c2C)o1` [Example 13, [(2S)-4-[[5-chloro-3-[[5-(methoxymethyl)-1,3,4-oxadiazol-2-yl]amino]-2-methyl-phenyl]methyl]-2-methyl-piperazin-1-yl]-cyclopentyl-methanone]: 14.7 nM, 48.9 nM and 112 nM.
As for `Cc1cc(CN2CCN(C(=O)C3CCC3)[C@@H](C)C2)c(C)c(Nc2nnc(C)o2)c1` [Example 14, cyclobutyl-[(2S)-4-[[2,5-dimethyl-3-[(5-methyl-1,3,4-oxadiazol-2-yl)amino]phenyl]methyl]-2-methyl-piperazin-1-yl]methanone], the results for the EC50 in assay [1], in assay [2] and in assay [3] were 61.1 nM, 185 nM and 372 nM, respectively.
Taken in the same sequence, the figures for `Cc1cc(CN2CCN(C(=O)C3CCC3)[C@@H](C)C2)c(C)c(Nc2nnc(CC#N)o2)c1` [Example 15, 2-[5-[3-[[(3S)-4-(cyclobutanecarbonyl)-3-methyl-piperazin-1-yl]methyl]-2,5-dimethyl-anilino]-1,3,4-oxadiazol-2-yl]acetonitrile] were 63.8 nM, 101 nM and 421 nM.
`Cc1cc(CN2CCN(C(=O)C3CC3)[C@@H](C)C2)c(C)c(Nc2nnc(CC#N)o2)c1` [Example 16, 2-[5-[3-[[(3S)-4-(cyclopropanecarbonyl)-3-methyl-piperazin-1-yl]methyl]-2,5-dimethyl-anilino]-1,3,4-oxadiazol-2-yl]acetonitrile]: the EC50 in assay [1] worked out at 223 nM; in assay [2], 237 nM; in assay [3] it was 206 nM.
In the case of `Cc1cc(CN2CCN(C(=O)C3CCC(F)(F)C3)[C@@H](C)C2)c(C)c(Nc2nnc(CC#N)o2)c1` (stereo partly drawn) [Example 17, 2-[5-[3-[[(3S)-4-(3,3-difluorocyclopentanecarbonyl)-3-methyl-piperazin-1-yl]methyl]-2,5-dimethyl-anilino]-1,3,4-oxadiazol-2-yl]acetonitrile], the values for the EC50 in assay [1], in assay [2] and in assay [3] were 54.5 nM, 230 nM and 131 nM, respectively.
For the molecule `Cc1c(CN2CCN(C(=O)C3CCCC3)[C@@H](C)C2)cc(Cl)cc1Nc1nnc(CC#N)o1` [Example 18, 2-[5-[5-chloro-3-[[4-(cyclopentanecarbonyl)-3-methyl-piperazin-1-yl]methyl]-2-methyl-anilino]-1,3,4-oxadiazol-2-yl]acetonitrile], the EC50 in assay [1] amounted to 21.2 nM; in assay [2], 69.8 nM; in assay [3] it was 203 nM.
As to `Cc1cc(CN2CCN(C(=O)C3CCC3)[C@@H](C)C2)c(C)c(Nc2nnc([C@@H](C)O)o2)c1` [Example 19, cyclobutyl-[(2S)-4-[[3-[[5-[(1R)-1-hydroxyethyl]-1,3,4-oxadiazol-2-yl]amino]-2,5-dimethyl-phenyl]methyl]-2-methyl-piperazin-1-yl]methanone], the EC50 in assay [1] turned out to be 92.3 nM; in assay [2] it was 117 nM; in assay [3] it was 216 nM.
As for `Cc1cc(CN2CCN(C(=O)C3CCC3)[C@@H](C)C2)c(C)c(Nc2nnc([C@H](C)O)o2)c1` [Example 20, cyclobutyl-[(2S)-4-[[3-[[5-[(1S)-1-hydroxyethyl]-1,3,4-oxadiazol-2-yl]amino]-2,5-dimethyl-phenyl]methyl]-2-methyl-piperazin-1-yl]methanone], the EC50 in assay [1] was found to be 113 nM; in assay [2] it was 189 nM; in assay [3] it was 259 nM.
The matching figures for `CCC(F)(F)C(=O)N1CCN(Cc2cc(C)cc(Nc3nnc([C@@H](C)O)o3)c2C)C[C@@H]1C` [Example 21, 2,2-difluoro-1-[(2S)-4-[[3-[[5-[(1R)-1-hydroxyethyl]-1,3,4-oxadiazol-2-yl]amino]-2,5-dimethyl-phenyl]methyl]-2-methyl-piperazin-1-yl]butan-1-one]: 71.7 nM, 180 nM and 251 nM.
The matching figures for `Cc1cc(CN2CCN(C(=O)C3CC3)[C@@H](C)C2)c(C)c(Nc2nnc([C@@H](C)O)o2)c1` [Example 22, cyclopropyl-[(2S)-4-[[3-[[5-[(1R)-1-hydroxyethyl]-1,3,4-oxadiazol-2-yl]amino]-2,5-dimethyl-phenyl]methyl]-2-methyl-piperazin-1-yl]methanone]: 169 nM, 254 nM and 355 nM.
For the molecule `Cc1cc(CN2CCN(C(=O)C3CC3C)[C@@H](C)C2)c(C)c(Nc2nnc([C@@H](C)O)o2)c1` (stereo partly drawn) [Example 23, [(2S)-4-[[3-[[5-[(1R)-1-hydroxyethyl]-1,3,4-oxadiazol-2-yl]amino]-2,5-dimethyl-phenyl]methyl]-2-methyl-piperazin-1-yl]-(2-methylcyclopropyl)methanone], the EC50 was 125 nM in assay [1], 368 nM in assay [2] and 238 nM in assay [3].
In the case of `Cc1cc(CN2CCN(C(=O)C3CCCC3)[C@@H](C)C2)c(C)c(Nc2nnc([C@@H](C)O)o2)c1` [Example 24, cyclopentyl-[(2S)-4-[[3-[[5-[(1R)-1-hydroxyethyl]-1,3,4-oxadiazol-2-yl]amino]-2,5-dimethyl-phenyl]methyl]-2-methyl-piperazin-1-yl]methanone], the EC50 in assay [1] worked out at 38.6 nM; in assay [2] it was 35.9 nM; in assay [3] it was 112 nM.
As to `Cc1cc(CN2CCN(C(=O)C3CCC(F)(F)C3)[C@@H](C)C2)c(C)c(Nc2nnc([C@@H](C)O)o2)c1` (stereo partly drawn) [Example 25, (3,3-difluorocyclopentyl)-[(2S)-4-[[3-[[5-[(1R)-1-hydroxyethyl]-1,3,4-oxadiazol-2-yl]amino]-2,5-dimethyl-phenyl]methyl]-2-methyl-piperazin-1-yl]methanone], the figures for the EC50 in assay [1], in assay [2] and in assay [3] were 159 nM, 258 nM and 191 nM, respectively.
As to `Cc1cc(CN2CCN(C(=O)CC3CCC3)[C@@H](C)C2)c(C)c(Nc2nnc([C@@H](C)O)o2)c1` [Example 26, 2-cyclobutyl-1-[(2S)-4-[[3-[[5-[(1R)-1-hydroxyethyl]-1,3,4-oxadiazol-2-yl]amino]-2,5-dimethyl-phenyl]methyl]-2-methyl-piperazin-1-yl]ethanone], the EC50 in assay [1] was determined as 58.2 nM; in assay [2], 91.3 nM; in assay [3] it was 119 nM.

The record behind these values is patent publication US10934282B2, “Heteroaromatic modulators of the retinoid-related orphan receptor gamma” (LEO PHARMA A/S, priority 2016, dated 2021).
